Assay results as given in US20240349726A1, “SUBSTITUTED 1,2,4-THIADIAZOLYL NICOTINAMIDES, SALTS OR N-OXIDES THEREOF AND THEIR USE AS HERBICIDALLY ACTIVE SUBSTANCES” (Bayer Aktiengesellschaft, priority 2021, published 2024).

Columns and labels:
Format in all cases: in vivo
[1] = tested on: Amaranthus retroflexus; experiment: Herbicidal pre-emergence action, AMARE; details: visual grading after ca. 3 weeks vs untreated controls
Excerpt: (§1) Seeds of mono- and dicotyledonous weed plants were sown in plastic pots (double sowings with one species of mono- and one species of dicotyledonous weed plants per pot), in sandy loam, and covered with soil. The compounds according to the invention, formulated in the form of wettable powders (WP) or as emulsifiable concentrates (EC), were applied to the surface of the covering soil as an aqueous suspension or as an emulsion, with the addition of 0.5% of an additive, at an application rate of 600 litres of water per hectare (converted). Following treatment, the pots were placed in a greenhouse and kept under optimum growth conditions for the test plants. The visual grading of the damage to the test plants is carried out after ca. 3 weeks in comparison to untreated controls (herbicidal effect in percent (%): 100% effect=plants have died, 0% effect=as control plants). Seeds of mono- and dicotyledonous weed plants were sown in plastic pots (double sowings with one species of mono- and one species of dicotyledonous weed plants per pot), in sandy loam, and covered with soil. The compounds according to the invention, formulated in the form of wettable powders (WP) or as emulsifiable concentrates (EC), were applied to the surface of the covering soil as an aqueous suspension or as an emulsion, with the addition of 0.5% of an additive, at an application rate of 600 litres of water per hectare (converted). Following treatment, the pots were placed in a greenhouse and kept under optimum growth conditions for the test plants. The visual grading of the damage to the test plants is carried out after ca. 3 weeks in comparison to untreated controls (herbicidal effect in percent (%): 100% effect=plants have died, 0% effect=as control plants).

[2] = tested on: Poa annua; experiment: Herbicidal pre-emergence action, POAAN; details: visual grading after ca. 3 weeks vs untreated controls
Excerpt: as §1

[3] = tested on: Stellaria media; experiment: Herbicidal pre-emergence action, STEME; details: visual grading after ca. 3 weeks vs untreated controls
Excerpt: as §1

[4] = tested on: Matricaria inodora; experiment: Herbicidal pre-emergence action, MATIN; details: visual grading after ca. 3 weeks vs untreated controls
Excerpt: as §1

[5] = tested on: Veronica persica; experiment: Herbicidal post-emergence action, VERPE; details: assessed visually after ca. 3 weeks vs untreated controls
Excerpt: (§2) Seeds of mono- and dicotyledonous weed plants were sown in plastic pots (double sowings with one species of mono- and one species of dicotyledonous weed plants per pot), in sandy loam, covered with soil and grown under controlled growth conditions. 2 to 3 weeks after sowing, the test plants were sprayed in the single-leaf stage. The compounds according to the invention, formulated in the form of wettable powders (WP) or as emulsifiable concentrates (EC), were sprayed onto the green plant parts as an aqueous suspension or as an emulsion, with the addition of 0.5% of an additive, at an application rate of 600 litres of water per hectare (converted). The test plants were placed in the greenhouse for ca. 3 weeks under optimum growth conditions, and then the effect of the preparations is assessed visually in comparison with untreated controls (herbicidal effect in percent (%): 100% effect=plants have died, 0% effect=as control plants). […]

[6] = tested on: Amaranthus retroflexus; experiment: Herbicidal post-emergence action, AMARE; details: assessed visually after ca. 3 weeks vs untreated controls
Excerpt: as §2

[7] = tested on: Stellaria media; experiment: Herbicidal post-emergence action, STEME; details: assessed visually after ca. 3 weeks vs untreated controls
Excerpt: as §2

[8] = tested on: Veronica persica; experiment: Herbicidal pre-emergence action, VERPE; details: 1280 g/ha, visual grading after ca. 3 weeks vs untreated controls
Excerpt: as §1

[9] = tested on: Lolium rigidum; experiment: Herbicidal pre-emergence action, LOLRI; details: visual grading after ca. 3 weeks vs untreated controls
Excerpt: as §1

[10] = tested on: Matricaria inodora; experiment: Herbicidal post-emergence action, MATIN; details: assessed visually after ca. 3 weeks vs untreated controls
Excerpt: as §2

[11] = tested on: Abutilon theophrasti; experiment: Herbicidal post-emergence action, ABUTH; details: assessed visually after ca. 3 weeks vs untreated controls
Excerpt: as §2

[12] = tested on: Kochia scoparia; experiment: Herbicidal post-emergence action, KCHSC; details: assessed visually after ca. 3 weeks vs untreated controls
Excerpt: as §2

[13] = tested on: Poa annua; experiment: Herbicidal post-emergence action, POAAN; details: assessed visually after ca. 3 weeks vs untreated controls
Excerpt: as §2

[14] = tested on: Lolium rigidum; experiment: Herbicidal post-emergence action, LOLRI; details: 1280 g/ha, assessed visually after ca. 3 weeks vs untreated controls
Excerpt: as §2

[15] = tested on: Setaria viridis; experiment: Herbicidal pre-emergence action, SETVI; details: 1280 g/ha, visual grading after ca. 3 weeks vs untreated controls
Excerpt: Seeds of mono- and dicotyledonous weed plants were sown in plastic pots (double sowings with one species of mono- and one species of dicotyledonous weed plants per pot), in sandy loam, and covered with soil. The compounds according to the invention, formulated in the form of wettable powders (WP) or as emulsifiable concentrates (EC), were applied to the surface of the covering soil as an aqueous suspension or as an emulsion, with the addition of 0.5% of an additive, at an application rate of 600 litres of water per hectare (converted). Following treatment, the pots were placed in a greenhouse and kept under optimum growth conditions for the test plants. The visual grading of the damage to the test plants is carried out after ca. 3 weeks in comparison to untreated controls (herbicidal effect in percent (%): 100% effect=plants have died, 0% effect=as control plants).

[16] = tested on: Alopecurus myosuroides; experiment: Herbicidal post-emergence action, ALOMY; details: 1280 g/ha, assessed visually after ca. 3 weeks vs untreated controls
Excerpt: as §2

Row | SMILES | herbicidal effect AMARE ([1]; 1280 g/ha) | herbicidal effect POAAN ([2]; 1280 g/ha) | herbicidal effect STEME ([3]; 1280 g/ha) | herbicidal effect MATIN ([4]; 1280 g/ha) | herbicidal effect VERPE ([5]; 1280 g/ha) | herbicidal effect AMARE ([6]; 320 g/ha) | herbicidal effect AMARE ([6]; 1280 g/ha) | herbicidal effect STEME ([7]; 1280 g/ha) | herbicidal effect LOLRI ([9]; 1280 g/ha) | herbicidal effect MATIN ([10]; 1280 g/ha) | herbicidal effect STEME ([3]; 320 g/ha) | herbicidal effect KCHSC ([12]; 1280 g/ha) | other results
1 | Cc1ccnc(Cl)c1C(=O)Nc1ncns1 [Example I-003] | 100% | 100% | 100% | 100% | 100% | 90% | 90% | 90% | – | – | – | – | herbicidal effect VERPE ([5]; 320 g/ha): 90%; herbicidal effect VERPE [8]: 90%
2 | O=C(Nc1ncns1)c1c(C(F)(F)F)ccnc1Cl [Example I-021] | 100% | 100% | 100% | 100% | 100% | 100% | 100% | 100% | 100% | 100% | 90% | 100% | herbicidal effect LOLRI ([9]; 320 g/ha): 90%; herbicidal effect POAAN ([2]; 320 g/ha): 90%; herbicidal effect MATIN ([10]; 320 g/ha): 100%; herbicidal effect MATIN ([4]; 320 g/ha): 90%; herbicidal effect ABUTH ([11]; 320 g/ha): 90%; herbicidal effect ABUTH ([11]; 1280 g/ha): 100%; herbicidal effect VERPE ([5]; 320 g/ha): 100%; herbicidal effect KCHSC ([12]; 320 g/ha): 90%; herbicidal effect POAAN ([13]; 1280 g/ha): 100%; herbicidal effect STEME ([7]; 320 g/ha): 90%; herbicidal effect LOLRI [14]: 90%; herbicidal effect VERPE [8]: 90%
3 | Cc1cc(F)ncc1C(=O)Nc1ncns1 [Example I-023] | 90% | 100% | 90% | 100% | – | – | 90% | – | – | – | – | – | –
4 | COc1nccc(C(C)C)c1C(=O)Nc1ncns1 [Example I-027] | – | – | 90% | – | – | – | – | – | – | – | – | – | –
5 | Cc1cc(Cl)nc(Cl)c1C(=O)Nc1ncns1 [Example I-020, 2,6-dichloro-4-methyl-N-(1,2,4-thiadiazol-5-yl)pyridine-3-carboxamide] | 90% | – | 100% | 90% | 100% | – | 90% | 90% | – | 90% | 90% | – | –
6 | O=C(Nc1nc(Br)ns1)c1cnccc1C(F)(F)F [Example I-014] | – | – | – | – | 100% | – | 100% | 100% | – | 100% | – | 90% | herbicidal effect STEME ([7]; 320 g/ha): 90%
7 | O=C(Nc1nc(C(F)(F)F)ns1)c1cnccc1C(F)(F)F [Example I-013] | 100% | – | – | – | 100% | 90% | 100% | 100% | – | 100% | – | 100% | herbicidal effect MATIN ([10]; 320 g/ha): 100%; herbicidal effect ABUTH ([11]; 1280 g/ha): 100%; herbicidal effect VERPE ([5]; 320 g/ha): 100%
8 | O=C(Nc1ncns1)c1cnc(Cl)cc1C(F)(F)F [Example I-024] | – | – | – | 90% | 90% | – | 90% | – | – | 100% | – | – | herbicidal effect MATIN ([10]; 320 g/ha): 90%
9 | CC(C)c1ccnc(Cl)c1C(=O)Nc1ncns1 [Example I-026, 2-chloro-4-isopropyl-N-(1,2,4-thiadiazol-5-yl)pyridine-3-carboxamide] | 100% | – | 100% | 100% | 90% | 90% | 100% | 100% | 100% | – | 90% | 90% | –
10 | Cc1ccncc1C(=O)Nc1ncns1 [Example I-011] | 100% | 100% | 90% | 90% | – | – | – | – | – | – | 90% | – | herbicidal effect POAAN ([2]; 320 g/ha): 90%
11 | COc1nccc(C(F)(F)F)c1C(=O)Nc1ncns1 [Example I-010] | – | 100% | 90% | 100% | 100% | 100% | 100% | – | 100% | – | – | 100% | herbicidal effect VERPE ([5]; 320 g/ha): 100%; herbicidal effect POAAN ([13]; 320 g/ha): 90%; herbicidal effect POAAN ([13]; 1280 g/ha): 90%
12 | O=C(Nc1ncns1)c1cnccc1C(F)(F)F [Example I-001] | 100% | 100% | 100% | 100% | – | – | 90% | 100% | 100% | 100% | 100% | – | herbicidal effect AMARE ([1]; 320 g/ha): 100%; herbicidal effect POAAN ([2]; 320 g/ha): 100%; herbicidal effect MATIN ([10]; 320 g/ha): 90%; herbicidal effect POAAN ([13]; 320 g/ha): 100%; herbicidal effect POAAN ([13]; 1280 g/ha): 100%; herbicidal effect STEME ([7]; 320 g/ha): 100%; herbicidal effect SETVI [15]: 90%; herbicidal effect LOLRI [14]: 90%
13 | Cc1nsc(NC(=O)c2c(C(F)(F)F)ccnc2F)n1 [Example I-008] | 90% | – | 90% | – | 90% | – | 100% | 100% | – | – | – | – | herbicidal effect ALOMY [16]: 90%; herbicidal effect STEME ([7]; 320 g/ha): 90%
14 | Cc1ccnc(Br)c1C(=O)Nc1ncns1 [Example I-022, 2-bromo-4-methyl-N-(1,2,4-thiadiazol-5-yl)pyridine-3-carboxamide] | – | – | 100% | – | – | – | 90% | 90% | – | – | – | – | –
15 | CCc1ccnc(Cl)c1C(=O)Nc1ncns1 [Example I-004] | 90% | 90% | 100% | 90% | 100% | – | 100% | – | 100% | – | – | – | herbicidal effect POAAN ([13]; 1280 g/ha): 100%
